Consider one substance from US8545834B2, “G-substrate for the treatment and prevention of parkinson's disease” (The McLean Hospital Corporation, priority 2007, dated 2013).

One series concerns A9 DA neurons. The class given is in vivo, rat. From the text: Retrograde 6-OHDA lesioning within the striatum is a well-established method of creating progressive degeneration of A9 DA neurons. The loss of TH immunoreactivity reflects actual loss of DA neurons (Sauer, 1994).
The in vivo neuroprotective effects of G-substrate against 6-OHDA-induced toxicity was examined by injecting 6-OHDA into the corpus striatum of rats which previously had either G-substrate or control genes (empty vector or YFP) delivered to the midbrain using the lentivirus as described above. 6-OHDA induced approximately an 80% loss of TH-positive neurons in the midbrain (FIG. 12Q) and complete loss of TH immunoreactivity in the striatum (data not shown). The severity of the striatal insult in this paradigm precluded our ability to usefully measure protection of striatal nerve terminals. […] Furthermore, most of the surviving TH-positive neurons in lenti G-substrate-transduced rats were strongly G-substrate-positive (FIGS. 12G-12L).
Rats received two 2.75 μl stereotaxic injections of either lenti-empty vector+lenti-eGFP (n=19), lenti-G substrate+lenti-eGFP (n=19), or lenti-YFP (n=14) and delivered at a rate of 0.2 μl/min using microinfusion pumps (Stoelting Co, Wood Dale, Ill.) with 10 min wait times after each injection. Lenti-eGFP was added to each condition, excluding the YFP condition, to serve as an exogenous marker for surgical targeting (0.5 μl of the total 5.5 μl A volume). SN injection coordinates were as follows: site 1: AP −4.8, ML −2.0, DV −7.2; site 2: AP −5.5, ML −1.8, DV −7.2; and tooth bar set at −3.3. Virus titers (p24) were as follows: G substrate, 60 ng/μl; empty vector, 60 ng/μl; eGFP, 83 ng/μl; and YFP, 60 ng/μl.
Two weeks following lentiviral injection, animals (lenti-empty vector+lenti-eGFP (n=9), lenti-G substrate+lenti-eGFP (n=9), or lenti-YFP (n=14)) received three 2.5 μl stereotaxic injections of 3.0 μg/μl 6-OHDA (total dose=22.5 μg 6-OHDA) delivered at a rate of 0.5 μl/min and 5 min wait times after each injection. Striatum injection coordinates were as follows: site 1: AP +1.3, ML −2.8, DV −4.5; site 2: AP +0.2, ML, −3.0, DV −5.0; site 3: AP −0.6, ML −4.0, DV −5.5; and tooth bar set at −3.3. The lesion was allowed to progress for 3 weeks after which animals were sacrificed for post mortem analyses.
Brains were cut frozen in the coronal plane at a thickness of 40 μm on a sliding microtome and six series of sections were stored in cryoprotectant. Two full series of sections were processed for visualization of tyrosine hydroxylase (TH) via the biotin-labeled antibody procedure. Briefly, following several washes in a PBS solution containing 0.01% Triton X-100 (PBS-T), endogenous peroxidase was quenched in a 3% hydrogen peroxide solution and background staining was then inhibited in a 5% normal goat serum solution. […]

The subject of the next series is TH-positive neurons. The experiment in a line: Transduction of midbrain TH-positive neurons after intra-nigral lentivirus injection. The series is classed as in vivo, rat. The following applies: naïve rats; compared to GFP-transduced rats. The protocol:
A lentivirus encoding G-substrate (Lenti G-substrate) was stereotactically injected immediately dorsal to the substantia nigra in rats. The transduction efficiency of the lentivirus was then determined. Lenti G-substrate was transduced into TH-positive neurons to varying degrees depending upon the neuroanatomical level.
Rats received two 2.75 μl stereotaxic injections of either lenti-empty vector+lenti-eGFP (n=19), lenti-G substrate+lenti-eGFP (n=19), or lenti-YFP (n=14) and delivered at a rate of 0.2 μl/min using microinfusion pumps (Stoelting Co, Wood Dale, Ill.) with 10 min wait times after each injection. […]
Estimates of TH-positive neuronal number within the SN were performed using Stereo Investigator™ software (MBF Bioscience, Williston, Vt.) and stereologic principles (West et al., J. Comp. Neurol. 296: 1-22, 1990). […] For each tissue section analyzed, section thickness was assessed empirically and guard zones of 2 μm thickness were used at the top and bottom of each section. The SN was outlined under low magnification (2.5×) and approximately 50% of the outlined region was analyzed using a systematic random sampling design generated with the following stereologic parameters: grid size, 200×200 μm; counting frame size, 153×140 μm; and dissector height, 16 μm. […]

For the substance “G-substrate: human wild type G-substrate (SEQ ID NO.: 1) overexpressed from a lentiviral vector”, in the series with A9 DA neurons (6-OHDA-lesioned rats), the DA neuronal protection was ~10%. Further, the “transduced DA neurons protected from 6-OHDA-induced toxicity” value in the series with A9 DA neurons (worked out from 22.3% transduction and ˜10% protection) is given as “approximately 50%”. Also, in the series on TH-positive neurons, the “total number of TH-positive neurons in midbrain” value was “did not alter”.
